Patent publication US8247351B2, “Insecticidal compositions having improved effect” (Bayer Cropscience AG, priority 2005, dated 2012)
Blank lines part the entries; values can stand above or below the molecule they belong to.

How the values were obtained:
Myzus persicae [1] = test: Myzus persicae test, Example C (spraying top side of leaf, ammonium salt plus penetrant); assay type: in vivo; details: 120 g/ha active ingredient
Description: (§1) Solvent: 7 parts by weight dimethylformamide
(§2) Emulsifier: 1 part by weight alkylaryl polyglycol ether
(§3) An appropriate preparation of active ingredient is prepared by mixing 1 part by weight of active ingredient with the stated amounts of solvent and emulsifier and diluting the concentrate with water to the desired concentration. Where it is necessary to add ammonium salts, phosphonium salts or penetrant, the appropriate amount is added by pipette, after dilution, to each of the ready prepared product solutions. Single-leaf paprika plants (Capsicum annuum) heavily infested by the green peach aphid (Myzus persicae) are treated by spraying the top side of the leaf (spray volume 600 1/ha) with the preparation of active ingredient at the desired concentration. After the desired time the destruction in % is ascertained. 100% means that all of the animals have been killed; 0% means that no animals have been killed.

Myzus persicae [2] = test: Myzus persicae test, Example B (spraying top side of leaf, ammonium salt boosting); assay type: in vivo; details: 120 g/ha active ingredient
Description: as §1, §2
as §3, with “ready-prepared” for “ready prepared”

[3] = Penetration of active ingredient through enzymatically isolated apple leaf cuticles (Examples A-1, A-2, A-3); assay type: in vitro ADME, apple trees of the Golden Delicious variety; details: 500 ppm in DMF/Emulgator W 7:1 (w/w)
Description: This test measured the penetration of active ingredients through enzymatically isolated cuticles of apple leaves.
The leaves used were cut in the fully developed state from apple trees of the Golden Delicious variety. The cuticles were isolated as follows: • first of all, leaf discs marked on the underside with dye and formed by punching were filled by means of vacuum infiltration with a pectinase solution (0.2% to 2% strength) buffered to a pH of between 3 and 4, • then sodium azide was added and • the leaf discs thus treated were left to stand until the original leaf structure broke down and the non-cellular cuticle underwent detachment.
Thereafter only those cuticles from the top leaf sides that were free from stomata and hairs were used. They were washed a number of times in alternation with water and with a buffer solution of pH 7. The clean cuticles obtained were, finally, applied to Teflon plaques, smoothed with a gentle jet of air, and dried.
In the next step the cuticular membranes obtained in this way were placed in stainless steel diffusion cells (i.e. transport chambers) for the purpose of membrane transport investigations. For these investigations the cuticles were placed centrally using tweezers on the edges of the diffusion cells, which were coated with silicone grease, and sealed with a ring, which was likewise greased. The arrangement had been chosen so that the morphological outer face of the cuticles was directed outwards, in other words to the air, while the original inner side was facing the interior of the diffusion cell.
The diffusion cells were filled with a 30% strength ethylene glycol/water solution. Penetration was determined by applying 10 μl of the spray liquor, whose composition is indicated below, to the outer face of each cuticle. The spray liquor is made up using local tap water of medium hardness.
After the spray liquors had been applied, the water was evaporated and the chambers were then inverted and placed in thermostated troughs in which the temperature and atmospheric humidity above the cuticle was adjustable by means of a gentle stream of air onto the cuticle with the spray coating (20° C., 60% rh). At regular intervals an autosampler took aliquots which were assayed for active ingredient by HPLC.
The figures indicated are average values from 8 to 10 measurements.
Example A-2 was carried out in the same way as in Example A-1.
Example A-3 was carried out in the same way as in Example A-1.

Myzus persicae [4] = test: Myzus persicae test, Example D (sprayed to runoff, ammonium salt boosting); assay type: in vivo
Description: as §1
(§4) Emulsifier: 2 parts by weight alkylaryl polyglycol ether
(§5) An appropriate preparation of active ingredient is prepared by mixing 1 part by weight of active ingredient with the stated amounts of solvent and emulsifier and diluting the concentrate with water to the desired concentration. For the application with ammonium salts or phosphonium salts, these salts are added in a concentration of 1000 ppm to the spray liquor.
Paprika plants (Capsicum annum) heavily infested by the green peach aphid (Myzus persicae) are treated by being. sprayed to runoff with the preparation of active ingredient at the desired concentration. After the desired time the destruction in % is ascertained. 100% means that all of the animals have been killed; 0% means that no animals have been killed.

Aphis gossypii [5] = test: Aphis gossypii test, Example E (sprayed to runoff, ammonium salt boosting); assay type: in vivo
Description: as §1, §4
as §5, with “concentrate with emulsifier-containing water to” for “concentrate with water to”
(§6) Cotton plants (Gossypium hirsutum) heavily infested by the cotton aphid (Aphis gossypii) are sprayed to runoff with the preparation of active ingredient at the desired concentration.
(§7) After the desired time the destruction in % is ascertained. 100% means that all of the aphids have been killed; 0% means than no aphids were killed.

Myzus persicae [6] = test: Myzus persicae test, Example F (sprayed to runoff, ammonium salt plus penetrant); assay type: in vivo
Description: as §1, §4
An appropriate preparation of active ingredient is prepared by mixing 1 part by weight of active ingredient with the stated amounts of solvent and emulsifier and diluting the concentrate with water to the desired concentration. For the application with ammonium salts or phosphonium salts and penetrant (rapeseed oil methyl ester 500 EW), they are each added in a concentration of 1000 ppm to the spray liquor.
After the desired time the destruction in % is ascertained. 100% means that all of the animals have been killed; 0% means that no animals have been killed.

Aphis gossypii [7] = test: Aphis gossypii test, Example G (sprayed to runoff, ammonium salt plus penetrant); assay type: in vivo
Description: as §1, §4
An appropriate preparation of active ingredient is prepared by mixing 1 part by weight of active ingredient with the stated amounts of solvent and emulsifier and diluting the concentrate with emulsifier-containing water to the desired concentration. For the application with ammonium salts or phosphonium salts and penetrants (rapeseed oil methyl esters 500 EW), they are each added in a concentration of 1000 ppm a.i. to the spray liquor.
as §6, §7

[8] = 20 ppm active ingredient, +AS (1000 ppm)
[9] = 20 ppm active ingredient, no additive
[10] = 20 ppm active ingredient, +RME (1000 ppm)
[11] = 20 ppm active ingredient, +RME +AS (each 1000 ppm)
[12] = 4 ppm active ingredient, +AS (1000 ppm)
[13] = 4 ppm active ingredient, +RME (1000 ppm)
[14] = 4 ppm active ingredient, +RME +AS (each 1000 ppm)
[15] = 4 ppm active ingredient, no additive
[16] = 0.8 ppm active ingredient, +AS (1000 ppm)
[17] = 0.8 ppm active ingredient, no additive
[18] = 0.8 ppm active ingredient, +RME (1000 ppm)
[19] = 0.8 ppm active ingredient, +RME +AS (each 1000 ppm)

Structure (SMILES): Cc1ccc(-c2ccc(Cl)cc2)c(C)c1C1=C(O)C2(CCOCC2)NC1=O [Ex. I-1-a-2]
Degree of destruction/% after 4 days (Myzus persicae [1]; RME (1 g/l)): 37%
Degree of destruction/% after 4 days (Myzus persicae [1]; RME (1 g/l) + AS (1 g/l)): 92%

Structure (SMILES): CCOC(=O)OC1=C(c2cc(C)ccc2C)C(=O)N[C@]12CC[C@@H](OC)CC2 [Ex. I-1-c-1]
Degree of destruction/% after 3 days (Myzus persicae [2]; AS (ammonium sulphate, 1 g/l)): 67%
Degree of destruction/% after 3 days (Myzus persicae [2]; No AS): 37%

Penetration after 24 h/% ([3]; Table A-1, EC + AS (ammonium sulphate, 1 g/l)): 2.5%
Penetration after 24 h/% ([3]; Table A-1, EC + RME (1 g/l) + AS (1 g/l)): 41%
Penetration after 24 h/% ([3]; Table A-1, EC + RME (rapeseed oil methyl ester, 1 g/l)): 13.5%
Penetration after 24 h/% ([3]; Table A-1, EC alone, 20° C., 60% rh): 0.6%
Penetration after 24 h/% ([3]; Table A-2, EC + RME (1 g/l) + AT (ammonium thiocyanate, 1 g/l)): 12%
Penetration after 24 h/% ([3]; Table A-2, EC + RME (1 g/l)): 3.5%
Penetration after 24 h/% ([3]; Table A-2, EC alone): <0.2%
Penetration after 24 h/% ([3]; Table A-3, EC + RME (1 g/l) + Ammonium dihydrogen-phosphate (1 g/l)): 42%
Penetration after 24 h/% ([3]; Table A-3, EC + RME (1 g/l) + Diammonium hydrogen-phosphate (1 g/l)): 26%
Penetration after 24 h/% ([3]; Table A-3, EC + RME (1 g/l)): 10%
Structure (SMILES): Cc1cc(Cl)cc(C)c1C1=C(O)C2(CCOCC2)NC1=O [Example I-1-a-1]

Structure (SMILES): Cc1ccc(-c2ccc(Cl)cc2)cc1C1=C(O)C(C)(C)OC1=O [Example I-2-a-3]
Degree of destruction/% after 6 days (Myzus persicae [4]; [8]): 15%
Degree of destruction/% after 6 days (Myzus persicae [4]; [9]): 0%
Degree of destruction/% after 6 days (Aphis gossypii [5]; [8]): 30%
Degree of destruction/% after 6 days (Aphis gossypii [5]; [9]): 0%
Degree of destruction/% after 6 days (Myzus persicae [6]; [8]): 15%
Degree of destruction/% after 6 days (Myzus persicae [6]; [10]): 35%
Degree of destruction/% after 6 days (Myzus persicae [6]; [11]): 80%
Degree of destruction/% after 6 days (Myzus persicae [6]; [9]): 0%
Degree of destruction/% after 6 days (Aphis gossypii [7]; [12]): 5%
Degree of destruction/% after 6 days (Aphis gossypii [7]; [13]): 0%
Degree of destruction/% after 6 days (Aphis gossypii [7]; [14]): 15%
Degree of destruction/% after 6 days (Aphis gossypii [7]; [15]): 0%
Degree of destruction/% after 6 days (Aphis gossypii [7]; [8]): 30%
Degree of destruction/% after 6 days (Aphis gossypii [7]; [10]): 0%
Degree of destruction/% after 6 days (Aphis gossypii [7]; [11]): 65%
Degree of destruction/% after 6 days (Aphis gossypii [7]; [9]): 0%

Structure (SMILES): COc1cc(C)cc(Cl)c1C1=C(O)C2(CCC(OC)CC2)OC1=O (stereo not drawn) [Example I-2-a-4]
Degree of destruction/% after 6 days (Myzus persicae [4]; [8]): 80%
Degree of destruction/% after 6 days (Myzus persicae [4]; [9]): 60%
Degree of destruction/% after 6 days (Aphis gossypii [5]; [16]): 45%
Degree of destruction/% after 6 days (Aphis gossypii [5]; [17]): 10%
Degree of destruction/% after 6 days (Aphis gossypii [5]; [12]): 90%
Degree of destruction/% after 6 days (Aphis gossypii [5]; [15]): 70%
Degree of destruction/% after 6 days (Myzus persicae [6]; [12]): 0%
Degree of destruction/% after 6 days (Myzus persicae [6]; [13]): 0%
Degree of destruction/% after 6 days (Myzus persicae [6]; [14]): 70%
Degree of destruction/% after 6 days (Myzus persicae [6]; [15]): 0%
Degree of destruction/% after 6 days (Aphis gossypii [7]; [16]): 45%
Degree of destruction/% after 6 days (Aphis gossypii [7]; [18]): 45%
Degree of destruction/% after 6 days (Aphis gossypii [7]; [19]): 70%
Degree of destruction/% after 6 days (Aphis gossypii [7]; [17]): 10%

Structure (SMILES): COc1cc(C)cc(C)c1-c1c(O)c(C)c(-c2ccccn2)oc1=O [Example I-4-a-1]
Degree of destruction/% after 6 days (Myzus persicae [4]; [12]): 45%
Degree of destruction/% after 6 days (Myzus persicae [4]; [15]): 0%
Degree of destruction/% after 6 days (Myzus persicae [4]; [8]): 95%
Degree of destruction/% after 6 days (Myzus persicae [4]; [9]): 75%
Degree of destruction/% after 6 days (Aphis gossypii [5]; [12]): 40%
Degree of destruction/% after 6 days (Aphis gossypii [5]; [15]): 0%
Degree of destruction/% after 6 days (Myzus persicae [6]; [16]): 5%
Degree of destruction/% after 6 days (Myzus persicae [6]; [18]): 0%
Degree of destruction/% after 6 days (Myzus persicae [6]; [19]): 40%
Degree of destruction/% after 6 days (Myzus persicae [6]; [17]): 0%
Degree of destruction/% after 6 days (Aphis gossypii [7]; [16]): 15%
Degree of destruction/% after 6 days (Aphis gossypii [7]; [18]): 0%
Degree of destruction/% after 6 days (Aphis gossypii [7]; [19]): 45%
Degree of destruction/% after 6 days (Aphis gossypii [7]; [17]): 0%

Structure (SMILES): Cc1cc(Br)cc(C)c1-c1c(O)c(C)c(-c2ccccn2)oc1=O [Example I-4-a-3]
Degree of destruction/% after 6 days (Myzus persicae [4]; [12]): 70%
Degree of destruction/% after 6 days (Myzus persicae [4]; [15]): 5%
Degree of destruction/% after 6 days (Myzus persicae [4]; [8]): 85%
Degree of destruction/% after 6 days (Myzus persicae [4]; [9]): 40%
Degree of destruction/% after 6 days (Aphis gossypii [5]; [16]): 40%
Degree of destruction/% after 6 days (Aphis gossypii [5]; [17]): 0%
Degree of destruction/% after 6 days (Aphis gossypii [5]; [12]): 70%
Degree of destruction/% after 6 days (Aphis gossypii [5]; [15]): 25%
Degree of destruction/% after 6 days (Myzus persicae [6]; [16]): 5%
Degree of destruction/% after 6 days (Myzus persicae [6]; [18]): 20%
Degree of destruction/% after 6 days (Myzus persicae [6]; [19]): 98%
Degree of destruction/% after 6 days (Myzus persicae [6]; [17]): 0%
Degree of destruction/% after 6 days (Aphis gossypii [7]; [16]): 40%
Degree of destruction/% after 6 days (Aphis gossypii [7]; [18]): 0%
Degree of destruction/% after 6 days (Aphis gossypii [7]; [19]): 80%
Degree of destruction/% after 6 days (Aphis gossypii [7]; [17]): 0%

Structure (SMILES): Cc1ccc(-c2ccc(Cl)cc2)cc1C1=C(O)C(C)(C)C(C)(C)OC1=O [Example I-10-a-1]
Degree of destruction/% after 6 days (Myzus persicae [4]; [8]): 25%
Degree of destruction/% after 6 days (Myzus persicae [4]; [9]): 0%
Degree of destruction/% after 6 days (Aphis gossypii [5]; [8]): 45%
Degree of destruction/% after 6 days (Aphis gossypii [5]; [9]): 0%
Degree of destruction/% after 6 days (Myzus persicae [6]; [12]): 5%
Degree of destruction/% after 6 days (Myzus persicae [6]; [13]): 20%
Degree of destruction/% after 6 days (Myzus persicae [6]; [14]): 55%
Degree of destruction/% after 6 days (Myzus persicae [6]; [15]): 0%
Degree of destruction/% after 6 days (Myzus persicae [6]; [8]): 25%
Degree of destruction/% after 6 days (Myzus persicae [6]; [10]): 65%
Degree of destruction/% after 6 days (Myzus persicae [6]; [11]): 99%
Degree of destruction/% after 6 days (Myzus persicae [6]; [9]): 0%
Degree of destruction/% after 6 days (Aphis gossypii [7]; [8]): 45%
Degree of destruction/% after 6 days (Aphis gossypii [7]; [10]): 45%
Degree of destruction/% after 6 days (Aphis gossypii [7]; [11]): 70%
Degree of destruction/% after 6 days (Aphis gossypii [7]; [9]): 0%
